Measurements published in patent EP2924040A1, “2-Amino-1-(o-tolyl)pyrrolo[3,2-b]quinoxaline-3-carboxamide derivates” (Universität Zürich, priority 2014, dated 2015).

Key:
EphB4 = target: T1, EphB4 (Homo sapiens, UniProt P54760); experiment: FRET based enzymatic assay (Z'-LYTE Kinase Assay Kit-Tyr 1 Peptide); format: biochemical; settings: EphB4 25 ng/µL, ATP 125 µM, room temperature, 2 h
T1 sequence (P54760 16-987): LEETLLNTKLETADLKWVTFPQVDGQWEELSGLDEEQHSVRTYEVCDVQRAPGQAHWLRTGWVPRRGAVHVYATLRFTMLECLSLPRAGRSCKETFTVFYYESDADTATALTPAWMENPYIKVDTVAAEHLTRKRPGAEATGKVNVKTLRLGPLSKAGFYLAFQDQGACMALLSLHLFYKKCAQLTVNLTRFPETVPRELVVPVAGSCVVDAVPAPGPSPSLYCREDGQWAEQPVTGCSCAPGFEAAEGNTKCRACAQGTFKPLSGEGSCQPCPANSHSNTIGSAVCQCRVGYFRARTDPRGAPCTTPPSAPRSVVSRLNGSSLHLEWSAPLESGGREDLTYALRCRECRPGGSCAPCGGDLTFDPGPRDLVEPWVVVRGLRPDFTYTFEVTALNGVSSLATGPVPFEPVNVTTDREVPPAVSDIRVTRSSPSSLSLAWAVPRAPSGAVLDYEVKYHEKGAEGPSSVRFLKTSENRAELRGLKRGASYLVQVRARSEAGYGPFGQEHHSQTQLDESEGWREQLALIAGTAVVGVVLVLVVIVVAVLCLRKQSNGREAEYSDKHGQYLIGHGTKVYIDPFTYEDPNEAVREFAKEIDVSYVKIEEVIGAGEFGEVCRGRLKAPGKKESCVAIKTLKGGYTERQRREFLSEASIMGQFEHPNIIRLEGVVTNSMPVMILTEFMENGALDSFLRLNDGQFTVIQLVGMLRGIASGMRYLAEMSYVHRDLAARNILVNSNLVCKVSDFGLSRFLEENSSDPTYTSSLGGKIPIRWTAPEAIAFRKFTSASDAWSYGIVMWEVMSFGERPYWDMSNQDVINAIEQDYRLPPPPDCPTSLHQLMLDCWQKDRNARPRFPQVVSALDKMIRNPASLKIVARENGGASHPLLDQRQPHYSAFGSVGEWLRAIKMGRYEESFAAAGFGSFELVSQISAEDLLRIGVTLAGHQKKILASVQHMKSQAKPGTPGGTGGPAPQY
Protocol: Selected compounds were tested in the Z'-LYTE™ Kinase Assay Kit-Tyr 1 Peptide (Invitrogen, USA) in a Corning 384 well microtiter plate. Fluorescence progress curves were measured upon excitation at 400 nm and emission at 445 and 520 nm.

protein kinases = experiment: Selectivity profile with respect to protein kinases; format: binding; settings: kinase groups TK, TKL, STE, CK1, AGC, CAMK, CMGC, other (Fig. 1)
Description: A selectivity profile of compound 2 with respect to protein kinases is depicted in Figure 1. The protein kinases are selected from tyrosine kinases (TK), tyrosine kinase-like kinases (TKL), STE-Group, Cell Kinases 1 (CK1), AGC-Group, Calmodulin/Calcium regulated kinases (CAMK), CMGC Group and other kinases. The larger the respective dot, the higher the binding affinity of the compound to the respective protein kinases. […] As per Kawasaki Y. and Freire E. in Drug Discovery Today, 2011 November; 16(21-22): 985-990, "[e]xtremely high affinity and selectivity are two of the most sought-after properties of drug molecules."

EphA3 = target: T2, EphA3 (Homo sapiens, UniProt P29320); experiment: Differential Scanning Fluorimetry; format: binding; settings: 2 µmol/L EphA3, test compound 20 µmol/L, pH 8.0; read-out: difference in the melting temperature Tm (Δ Tm)
T2 sequence (P29320 21-983): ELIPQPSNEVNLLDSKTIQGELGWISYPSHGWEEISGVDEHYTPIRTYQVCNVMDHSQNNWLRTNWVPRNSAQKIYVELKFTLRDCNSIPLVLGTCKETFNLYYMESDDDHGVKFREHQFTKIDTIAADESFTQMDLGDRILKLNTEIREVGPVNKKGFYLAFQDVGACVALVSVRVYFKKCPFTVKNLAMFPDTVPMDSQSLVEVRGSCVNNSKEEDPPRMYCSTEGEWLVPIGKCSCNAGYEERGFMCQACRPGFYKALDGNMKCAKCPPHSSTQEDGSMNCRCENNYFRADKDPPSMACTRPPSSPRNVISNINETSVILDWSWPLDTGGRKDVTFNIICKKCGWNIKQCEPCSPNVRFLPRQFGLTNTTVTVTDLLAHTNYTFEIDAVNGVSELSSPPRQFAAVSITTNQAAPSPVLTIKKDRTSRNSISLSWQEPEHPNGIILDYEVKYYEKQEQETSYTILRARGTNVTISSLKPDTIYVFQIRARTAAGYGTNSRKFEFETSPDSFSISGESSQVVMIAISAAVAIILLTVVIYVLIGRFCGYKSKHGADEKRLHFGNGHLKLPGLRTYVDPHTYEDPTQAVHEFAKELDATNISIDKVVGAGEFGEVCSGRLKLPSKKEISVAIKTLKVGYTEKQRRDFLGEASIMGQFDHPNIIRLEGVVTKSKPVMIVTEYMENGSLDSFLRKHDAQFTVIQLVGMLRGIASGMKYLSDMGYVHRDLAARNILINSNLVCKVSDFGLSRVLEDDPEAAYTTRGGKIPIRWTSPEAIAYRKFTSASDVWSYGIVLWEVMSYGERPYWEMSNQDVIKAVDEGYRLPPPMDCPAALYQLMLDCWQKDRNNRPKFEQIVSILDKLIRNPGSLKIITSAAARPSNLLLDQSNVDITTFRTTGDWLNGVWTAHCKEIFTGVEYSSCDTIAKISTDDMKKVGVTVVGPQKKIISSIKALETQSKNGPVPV
Protocol: To a 2 µmol/L solution of EphA3 in 10mM Tris HCl buffer (pH 8.0) containing 100mM NaCl, 5X SYPRO Orange fluorescent dye together with the test compounds prediluted in DMSO at a concentration of 20 µmol/L (1.4% final DMSO concentration). A final volume of 40 µL was added per well in a 96-well plate and incubated at room temperature for 1 h. The plates were centrifuged for 3 min at 450 rcf. The temperature gradient was performed in the range of 25 to 75 °C (50 acquisitions per degree at a ramp rate of […]) using a LightCycler 480 Real-Time PCR System. The detection of protein unfolding was performed with an excitation wavelength of 488 nm and an emission of 580 nm. All measurements were performed in triplicate. Compound 2 comprises a difference in the melting temperature Tm (corresponding to the temperature at which the concentrations of folded and unfolded protein are equal) with respect to EphA3 of 11.44 °C (Δ Tm), whereas prior art compounds 17 and 87 presented differences in the melting temperature Tm with respect to EphA3 of 1.6 and 0.7 °C, respectively.

## Cc1ccc(O)cc1-n1c(N)c(C(N)=O)c2nc3ccccc3nc21 [Compound 2, 2-Amino-1-(5-hydroxy-2-methylphenyl)-1H-pyrrolo[2,3-b]quinoxaline-3-carboxamide]
EphB4
  IC50: 11 nM
Protein kinases
  selectivity profile (binding affinity) with respect to protein kinases: selectivity towards tyrosine kinases (TK)
EphA3
  ΔTm at 20 µM: 11.4 °C
